Data as given in patent US20230090111A1, “CXCL8 INHIBITOR AND PHARMACEUTICAL COMPOSITION THEREOF FOR USE IN THE TREATMENT OF CANCER-RELATED FATIGUE” (Dompe' farmaceutici SpA, priority 2020, published 2023).
Values joined by “and” are separate entries in the source; they are usually repeats but may differ in a detail not shown here. Equal values may be shown once. “Also recorded” adds a separate entry of the source.

Columns and labels:
[1] = test system: dogs with osteosarcoma metastatic to the lungs; assay: Prospective pilot study: QoL of dogs given doxorubicin, oclacitinib and ladarixin; assay type: in vivo; design: mqol gooddavs / mqol_sleeps / mqol_depressed / mqol_eats / mqol_drinks / mqol_moves / mqol_lays / mqol_active / mqol_play / mqol_presence / mqol_enjoyslife: scale not given here; details: for mqol gooddavs / mqol_active / mqol_depressed / mqol_drinks / mqol_eats / mqol_enjoyslife / mqol_lays / mqol_moves / mqol_play / mqol_presence / mqol_sleeps: with doxorubicin+oclacitinib
Experimental: A prospective pilot study was conducted to evaluate whether the addition of ladarixin to doxorubicin and oclacitinib mitigates the adverse event profile associated with doxorubicin which includes fatigue, lethargy, anorexia and a general decrease in quality of life (QoL).
A cohort of 5 dogs with osteosarcoma metastatic to the lungs was studied.
In this study, dogs received doxorubicin at […] IV, oclacitinib at 0.4-0.6 mg/kg orally twice per day (label dose) and ladarixin at 15 mg/kg twice per day.
A well validated QoL for dogs with cancer was used (Giuffrida et al., J Am Vet Med Assoc, 252(9): 1073-1083) to assess changes in performance status and quality of life during the course of the study. The QoL values were reported as a numerical value and tracked over each study visit. All owners were required to maintain a diary to chart the administration of medications, note any changes in behaviour, document appetite and energy levels, and identify any other changes in constitutional changes. Owners also recorded a daily performance status (scale from 0 to 5).

[2] = test system: cancer-related fatigue (CRF); details: A. Spathis et al., 2014; cited from earlier work
[3] = oclacitinib alone; cited from earlier work
[4] = test system: patients with metastatic triple negative breast cancer (TNBC); assay: Randomized, double-blind, placebo-controlled phase 2 study (FRIDA): fatigue as treatment emergent adverse event (NCI-CTCAE 4.03); assay type: in vivo, human
Experimental: The study was conducted with 56 sites actively screening patients in the United States of America, Italy, France, Belgium, Spain, Czech Republic and Poland.
Two sub-groups of patients were studied: newly diagnosed metastatic patients and patients that had relapsed following a prior (neo)adjuvant chemotherapy regimen. Amongst other inclusion criteria, to be able to participate in the study, subjects were to have a Zubrod/ECOG Performance Status of 0 or 1 (0=Fully active; no performance restrictions 1=Strenuous physical activity restricted; fully ambulatory and able to carry out light work).
There was no limit to study treatment duration and patients remained in the study until disease progression, withdrawal of consent or unacceptable toxicity, whichever occurred first.
Investigators reported any adverse events experienced by study patients according to the NCI-CTCAE version 4.03. Toxicity was defined according to the grading scale for each parameter. According to this scale, the presence and intensity of fatigue is defined as follows: • Grade 1: Fatigue relieved by rest • Grade 2: Fatigue not relieved by rest, limiting instrumental ADL • Grade 3: Fatigue not relieved by rest, limiting self care ADL • where instrumental ADL refers to preparing meals, shopping for groceries or clothes, using the telephone, managing money, and the like and self care ADL refer to bathing, dressing and undressing, feeding self, using the toilet, taking medications, but not bedridden.
The distributions of fatigue as a treatment emergent adverse event (TEAE) irrespective of relationship with study treatment were compared among treatment groups using the Chi-squared test (Table 1).

[5] = D0, one value per dog (Record ID 1-5)
[6] = D7, one value per dog (Record ID 1-5)
[7] = D14, one value per dog (Record ID 1-5)
[8] = D21, one value per dog (Record ID 3-5)
[9] = judged by investigators under double-blind conditions, Chi-squared P 0.020
[10] = paclitaxel plus reparixin (Group 1) or placebo (Group 2), Chi-squared P 0.003

**Q.** Which “total QoL score” value ([1]; 5 dogs, ladarixin with doxorubicin and oclacitinib) does the source give for C[C@@H](C(=O)NS(C)(=O)=O)c1ccc(OS(=O)(=O)C(F)(F)F)cc1 [ladarixin] here?
**A.** The value was “over 100”.

**Q.** What about the mqol gooddavs [1, 5] of the same molecule?
**A.** Its mqol gooddavs is 5 (4×) and 4.

**Q.** And the mqol_active [1, 5]?
**A.** The mqol_active was 5 (3×) and 2 and 4.

**Q.** And the mqol_depressed [1, 5]?
**A.** Its mqol_depressed is 5 (3×) and 4 (2×).

**Q.** What about the mqol_drinks [1, 5] of the same molecule?
**A.** Its mqol_drinks is 5 (4×) and 4.

**Q.** And the mqol_eats [1, 5]?
**A.** Its mqol_eats is 5 (4×) and 4.

**Q.** What about the mqol_enjoyslife [1, 5] of the same molecule?
**A.** The mqol_enjoyslife was 5 (4×) and 4.

**Q.** And the mqol_lays [1, 5]?
**A.** Its mqol_lays is 5 (4×) and 2.

**Q.** What about the mqol_moves [1, 5] of the same molecule?
**A.** Its mqol_moves is 5 (4×) and 2.

**Q.** What about the mqol_play [1, 5] of the same molecule?
**A.** The mqol_play was 5 (4×) and 4.

**Q.** And the mqol_presence [1, 5]?
**A.** Its mqol_presence is 5 (4×) and 4.

**Q.** And the mqol_sleeps [1, 5]?
**A.** The mqol_sleeps was 4 and 3 and 5 (3×).

**Q.** And the mqol gooddavs [1, 6]?
**A.** The mqol gooddavs was 4 and 5 (4×).

**Q.** And the mqol_active [1, 6]?
**A.** Its mqol_active is 5.

**Q.** And the mqol_depressed [1, 6]?
**A.** The mqol_depressed was 4 and 5 (4×).

**Q.** What about the mqol_drinks [1, 6] of the same molecule?
**A.** Its mqol_drinks is 5.

**Q.** And the mqol_eats [1, 6]?
**A.** The mqol_eats was 5 (4×) and 3.

**Q.** And the mqol_enjoyslife [1, 6]?
**A.** The mqol_enjoyslife was 5.

**Q.** And the mqol_lays [1, 6]?
**A.** Its mqol_lays is 4 and 5 (4×).

**Q.** And the mqol_moves [1, 6]?
**A.** Its mqol_moves is 4 and 5 (4×).

**Q.** What about the mqol_play [1, 6] of the same molecule?
**A.** Its mqol_play is 5 (4×) and 4.

**Q.** And the mqol_presence [1, 6]?
**A.** The mqol_presence was 5.

**Q.** And the mqol_sleeps [1, 6]?
**A.** Its mqol_sleeps is 4 (2×) and 2 and 1 and 5.

**Q.** What about the mqol gooddavs [1, 7] of the same molecule?
**A.** The mqol gooddavs was 5.

**Q.** What about the mqol_active [1, 7] of the same molecule?
**A.** Its mqol_active is 5 (3×) and 4 and 3.

**Q.** What about the mqol_depressed [1, 7] of the same molecule?
**A.** Its mqol_depressed is 5 (4×) and 4.

**Q.** And the mqol_drinks [1, 7]?
**A.** The mqol_drinks was 5.

**Q.** What about the mqol_eats [1, 7] of the same molecule?
**A.** The mqol_eats was 5.

**Q.** What about the mqol_enjoyslife [1, 7] of the same molecule?
**A.** Its mqol_enjoyslife is 5.

**Q.** What about the mqol_lays [1, 7] of the same molecule?
**A.** Its mqol_lays is 5 (4×) and 4.

**Q.** And the mqol_moves [1, 7]?
**A.** Its mqol_moves is 5 (2×) and 4 (3×).

**Q.** And the mqol_play [1, 7]?
**A.** Its mqol_play is 5.

**Q.** What about the mqol_presence [1, 7] of the same molecule?
**A.** Its mqol_presence is 5 (4×) and 4.

**Q.** What about the mqol_sleeps [1, 7] of the same molecule?
**A.** Its mqol_sleeps is 5 (2×) and 4 and 3 (2×).

**Q.** What about the mqol gooddavs [1, 8] of the same molecule?
**A.** Its mqol gooddavs is 5 (2×) and 4.

**Q.** What about the mqol_active [1, 8] of the same molecule?
**A.** Its mqol_active is 5 (2×) and 2.

**Q.** And the mqol_depressed [1, 8]?
**A.** The mqol_depressed was 5 (2×) and 4.

**Q.** What about the mqol_drinks [1, 8] of the same molecule?
**A.** The mqol_drinks was 5 (2×) and 4.

**Q.** And the mqol_eats [1, 8]?
**A.** Its mqol_eats is 5 (2×) and 4.

**Q.** And the mqol_enjoyslife [1, 8]?
**A.** The mqol_enjoyslife was 5 (2×) and 4.

**Q.** What about the mqol_lays [1, 8] of the same molecule?
**A.** The mqol_lays was 5 (2×) and 2.

**Q.** What about the mqol_moves [1, 8] of the same molecule?
**A.** Its mqol_moves is 4 and 3 and 5.

**Q.** What about the mqol_play [1, 8] of the same molecule?
**A.** The mqol_play was 5 (2×) and 4.

**Q.** What about the mqol_presence [1, 8] of the same molecule?
**A.** The mqol_presence was 5 (2×) and 4.

**Q.** And the mqol_sleeps [1, 8]?
**A.** Its mqol_sleeps is 5 (2×) and 3.

**Q.** And the “Effect on severity of fatigue associated with doxorubicin treatment (in words)” value ([1]; ladarixin added to doxorubicin and oclacitinib)?
**A.** The value was “reduced the severity of the known fatigue induced by the treatment with doxorubicin; also recorded: reduced the severity of the known fatigue associated to the treatment”.

**Q.** With NC(=O)C[S+]([O-])C(c1ccccc1)c1ccccc1 (stereo not drawn) [modafimil] as the molecule, how does the “Benefit over placebo in CRF (in words)” value [2] read?
**A.** The value was “no benefit over placebo”.

**Q.** Which “Ability to reduce severity of fatigue associated with chemotherapy (in words)” value [3] does the source give for CNS(=O)(=O)C[C@H]1CC[C@H](N(C)c2ncnc3[nH]ccc23)CC1 [oclacitinib] here?
**A.** The value was “not able to reduce the severity of fatigue associated with chemotherapy”.

**Q.** For CC(=O)O[C@H]1C(=O)[C@@]2(C)[C@H]([C@H](OC(=O)c3ccccc3)[C@]3(O)C[C@H](OC(=O)[C@H](O)[C@@H](NC(=O)c4ccccc4)c4ccccc4)C(C)=C1C3(C)C)[C@]1(OC(C)=O)CO[C@@H]1C[C@@H]2O [paclitaxel], which “Subjects with severe (Grade 3) treatment-related fatigue, number” value ([4]; in vivo) is on record?
**A.** The value was “two”.

**Q.** And the “Subjects with severe (Grade 3) treatment-related fatigue, percent” value ([4]; in vivo)?
**A.** Its value is 3.3%.

**Q.** And the “Fatigue as TEAE at least possibly related to study treatment: No, number of subjects” value [4, 9]?
**A.** Its value is 43.

**Q.** What about the “Fatigue as TEAE at least possibly related to study treatment: No, percent of subjects” value [4, 9] of the same molecule?
**A.** The value was 71.7%.

**Q.** What about the “Fatigue as TEAE at least possibly related to study treatment: Yes, number of subjects” value [4, 9] of the same molecule?
**A.** The value was 17 subjects.

**Q.** And the “Fatigue as TEAE at least possibly related to study treatment: Yes, percent of subjects” value [4, 9]?
**A.** Its value is 28.3%.

**Q.** And the “Fatigue as TEAE irrespective of relationship with study treatment: Yes, number of subjects” value ([4]; paclitaxel 80 mg/m2 i.v. plus reparixin 1200 mg t.i.d. (Group 1) or placebo (Group 2), Chi-squared P 0.003)?
**A.** The value was 26 subjects.

**Q.** What about the “Fatigue as TEAE irrespective of relationship with study treatment: No, number of subjects” value [4, 10] of the same molecule?
**A.** Its value is 34.

**Q.** And the “Fatigue as TEAE irrespective of relationship with study treatment: No, percent of subjects” value [4, 10]?
**A.** The value was 56.7%.

**Q.** And the “Fatigue as TEAE irrespective of relationship with study treatment: Yes, percent of subjects” value [4, 10]?
**A.** The value was 43.3%.

**Q.** What does the source list for CC(C)Cc1ccc([C@@H](C)C(=O)NS(C)(=O)=O)cc1 [reparixin, R-(−)-2-(4-isobutylphenyl)propionyl methansulfonamide]?
**A.** Severity of fatigue in patients experiencing fatigue (NCI-Common Toxicity Criteria Grade) ([4]; all patients experiencing fatigue, mild and moderate): 1-2 Grade; Effect on incidence and severity of fatigue (in words) ([4]; paclitaxel plus reparixin compared with paclitaxel and placebo): beneficial effect on incidence and severity of cancer-related fatigue; also recorded: significantly lower incidence and severity of treatment-related fatigue
